Measured values as given in publication PMC9866218, “Characterization and Chemical Synthesis of Cm39 (α-KTx 4.8): A Scorpion Toxin That Inhibits Voltage-Gated K^+ Channel KV1.2 and Small- and Intermediate-Conductance Ca^2+-Activated K^+ Channels KCa2.2 and KCa3.1” (Toxins, 2023).
“Also recorded” adds a separate entry of the source.

Test system: hNaV1.4
Assay: Whole-cell patch-clamp, block of NaV1.4 current
Type: cell-based, human
Settings: HEK 293 cells
From the text: We, therefore, aimed at testing the pharmacological activity of sCm39 on a battery of various potassium and sodium ion channels. Among the tested channels were six members of human voltage-gated K^+ (hKV) channels from Shaker family, hKV1.1-hKV1.6 (Figure 3A–F) and three members of Ca^2+-activated potassium channel; hKCa2.2 (SK2, Figure 3I), the small-conductance Ca^2+-activated channel; hKCa3.1 (IKCa1, SK4. Figure 3J), the intermediate-conductance Ca^2+-activated channel expressed in T lymphocytes; and mKCa1.1 (BK, Slo1, MaxiK, Figure 3H), the large-conductance voltage- and Ca^2+-activated channel of mice. In addition, we also screened the effect of Cm39 on hKV11.1 (hERG1, Figure 3G), a voltage-gated cardiac K^+ channel, and two human voltage-gated sodium (hNaV) channels, hNaV1.4 (Figure 3K) and hNaV1.5 (Figure 3L), expressed in skeletal and cardiac muscles, respectively. These ion channels were heterologously expressed in the CHO or HEK cell lines except for KV1.3. Human peripheral T lymphocytes. […]
Whole-cell currents were recorded in voltage-clamped cells following standard protocols by using a Multiclamp 700B amplifier connected to a computer with Axon Digidata1440 digitizer and for data acquisition, Clampex 10.7 software was used (Molecular Devices). […]

CC[C@H](C)[C@@H]1NC(=O)[C@H](C)NC(=O)[C@H](C)NC(=O)[C@H](CCCCN)NC(=O)[C@@H]2CSSC[C@@H](C(=O)N[C@@H](Cc3ccc(O)cc3)C(=O)N[C@@H](Cc3ccc(O)cc3)C(=O)O)NC(=O)[C@H](CCCCN)NC(=O)[C@@H]3CSSC[C@H](NC(=O)[C@H](CCC(=O)O)NC(=O)[C@H](CO)NC(=O)[C@H](CO)NC(=O)[C@H](CO)NC(=O)[C@H](CCCCN)NC(=O)[C@@H](NC(=O)[C@H](CCCCN)NC(=O)[C@H](Cc4c[nH]cn4)NC(=O)[C@H](CC(N)=O)NC(=O)[C@@H](NC(=O)[C@H](Cc4ccccc4)NC(=O)[C@@H](N)[C@@H](C)O)[C@@H](C)CC)CSSC[C@H](NC(=O)[C@H](CCCCN)NC(=O)CNC(=O)[C@H](CO)NC(=O)[C@H](C)NC(=O)[C@H](CCCNC(=N)N)NC(=O)CNC1=O)C(=O)N[C@@H]([C@@H](C)CC)C(=O)N[C@@H](CC(N)=O)C(=O)N[C@@H](CO)C(=O)N[C@@H]([C@@H](C)O)C(=O)N3)C(=O)N[C@@H](CC(C)C)C(=O)N1CCC[C@H]1C(=O)N[C@@H](C)C(=O)N2 [Cm39]
inhibition (in words) (1 μM): does not inhibit; also recorded: did not show any effect | decrease in current (1 µM, 3−5 min, n = 3−5): < 3%
